Reference: PubChem BioAssay (NCI)
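Briefly, cells in 96-well plates were exposed to five compound concentrations for 48 h, and endpoints were estimated by linear interpolation. At the TGI there is no net growth.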

Assays:
Assay in all cases: inhibition of tumour cell growth, NCI panel, 48 h
786-0 renal = test system: 786-0 renal
A498 renal = test system: A498 renal
A549 NSCLC = test system: A549 NSCLC
ACHN renal = test system: ACHN renal
CAKI-1 renal = test system: CAKI-1 renal
CCRF-CEM leukemia = test system: CCRF-CEM leukemia
COLO 205 colon = test system: COLO 205 colon
DLD-1 colon = test system: DLD-1 colon
DMS 114 small cell lung = test system: DMS 114 small cell lung
DMS 273 small cell lung = test system: DMS 273 small cell lung
EKVX NSCLC = test system: EKVX NSCLC
HCC-2998 colon = test system: HCC-2998 colon
HCT-116 colon = test system: HCT-116 colon
HCT-15 colon = test system: HCT-15 colon
HL-60(TB) leukemia = test system: HL-60(TB) leukemia
HOP-62 NSCLC = test system: HOP-62 NSCLC
HOP-92 NSCLC = test system: HOP-92 NSCLC
HT29 colon = test system: HT29 colon
IGROV1 ovarian = test system: IGROV1 ovarian
K-562 leukemia = test system: K-562 leukemia
KM12 colon = test system: KM12 colon
KM20L2 colon = test system: KM20L2 colon
LOX IMVI melanoma = test system: LOX IMVI melanoma
LXFL 529 NSCLC = test system: LXFL 529 NSCLC
M14 melanoma = test system: M14 melanoma
M19-MEL melanoma = test system: M19-MEL melanoma
MALME-3M melanoma = test system: MALME-3M melanoma
MOLT-4 leukemia = test system: MOLT-4 leukemia
NCI-H226 lung = test system: NCI-H226 lung
NCI-H23 lung = test system: NCI-H23 lung
NCI-H460 lung = test system: NCI-H460 lung
NCI-H522 lung = test system: NCI-H522 lung
OVCAR-3 ovarian = test system: OVCAR-3 ovarian
OVCAR-4 ovarian = test system: OVCAR-4 ovarian
OVCAR-5 ovarian = test system: OVCAR-5 ovarian
OVCAR-8 ovarian = test system: OVCAR-8 ovarian
RPMI-8226 leukemia = test system: RPMI-8226 leukemia
RXF 393 renal = test system: RXF 393 renal
RXF-631 renal = test system: RXF-631 renal
SF-268 CNS = test system: SF-268 CNS
SF-539 CNS = test system: SF-539 CNS
SK-MEL-2 melanoma = test system: SK-MEL-2 melanoma
SK-MEL-28 melanoma = test system: SK-MEL-28 melanoma
SK-MEL-5 melanoma = test system: SK-MEL-5 melanoma
SK-OV-3 ovarian = test system: SK-OV-3 ovarian
SN12C renal = test system: SN12C renal
SNB-19 CNS = test system: SNB-19 CNS
SNB-75 CNS = test system: SNB-75 CNS
SNB-78 CNS = test system: SNB-78 CNS
SW-620 colon = test system: SW-620 colon
TK-10 renal = test system: TK-10 renal
U251 CNS = test system: U251 CNS
UACC-257 melanoma = test system: UACC-257 melanoma
UACC-62 melanoma = test system: UACC-62 melanoma
UO-31 renal = test system: UO-31 renal
XF 498 CNS = test system: XF 498 CNS
HOP-18 NSCLC = test system: HOP-18 NSCLC
SR leukemia = test system: SR leukemia

With `Cc1cccc(NC(=O)C(=O)C(C(=O)c2ccc3ccccc3c2)C2OC(=O)c3ccccc32)c1C` (stereo not drawn) as the molecule, how does the TGI (786-0 renal) read?
Its TGI is 20.3 µM.

And the TGI (A498 renal)?
The TGI was 24.2 µM.

And the TGI (A549 NSCLC)?
The TGI was 69.2 µM.

What about the TGI (ACHN renal) of the same molecule?
Its TGI is 81.4 µM.

What about the TGI (CAKI-1 renal) of the same molecule?
The TGI was 39.3 µM.

And the TGI (CCRF-CEM leukemia)?
The TGI was 68.8 µM.

And the TGI (COLO 205 colon)?
Its TGI is 24.7 µM.

What about the TGI (DLD-1 colon) of the same molecule?
The TGI was 28.9 µM.

And the TGI (DMS 114 small cell lung)?
Its TGI is 35.2 µM.

What about the TGI (DMS 273 small cell lung) of the same molecule?
Its TGI is 39 µM.

And the TGI (EKVX NSCLC)?
Its TGI is 77.8 µM.

What about the TGI (HCC-2998 colon) of the same molecule?
Its TGI is 19.5 µM.

What about the TGI (HCT-116 colon) of the same molecule?
Its TGI is 22.2 µM.

And the TGI (HCT-15 colon)?
The TGI was 41.9 µM.

What about the TGI (HL-60(TB) leukemia) of the same molecule?
The TGI was 68.5 µM.

And the TGI (HOP-62 NSCLC)?
Its TGI is 24.7 µM.

What about the TGI (HOP-92 NSCLC) of the same molecule?
Its TGI is 36.8 µM.

What about the TGI (HT29 colon) of the same molecule?
Its TGI is 64.4 µM.

What about the TGI (IGROV1 ovarian) of the same molecule?
The TGI was 57.7 µM.

What about the TGI (K-562 leukemia) of the same molecule?
The TGI was over 100 µM.

And the TGI (KM12 colon)?
The TGI was 51.7 µM.

What about the TGI (KM20L2 colon) of the same molecule?
The TGI was over 100 µM.

What about the TGI (LOX IMVI melanoma) of the same molecule?
The TGI was 30.4 µM.

And the TGI (LXFL 529 NSCLC)?
The TGI was 22.4 µM.

What about the TGI (M14 melanoma) of the same molecule?
The TGI was 33.4 µM.

What about the TGI (M19-MEL melanoma) of the same molecule?
The TGI was 21.9 µM.

And the TGI (MALME-3M melanoma)?
The TGI was 21.7 µM.

And the TGI (MOLT-4 leukemia)?
The TGI was 32.2 µM.

And the TGI (NCI-H226 lung)?
Its TGI is 8.74 µM.

And the TGI (NCI-H23 lung)?
Its TGI is 59.1 µM.

What about the TGI (NCI-H460 lung) of the same molecule?
Its TGI is 87.8 µM.

And the TGI (NCI-H522 lung)?
The TGI was 43.5 µM.

And the TGI (OVCAR-3 ovarian)?
The TGI was 50.1 µM.

What about the TGI (OVCAR-4 ovarian) of the same molecule?
Its TGI is 33.7 µM.

And the TGI (OVCAR-5 ovarian)?
The TGI was 54.7 µM.

And the TGI (OVCAR-8 ovarian)?
Its TGI is 71.8 µM.

And the TGI (RPMI-8226 leukemia)?
Its TGI is 43.2 µM.

And the TGI (RXF 393 renal)?
Its TGI is 11.6 µM.

What about the TGI (RXF-631 renal) of the same molecule?
The TGI was 29.8 µM.

And the TGI (SF-268 CNS)?
Its TGI is 53.6 µM.

What about the TGI (SF-539 CNS) of the same molecule?
The TGI was 22.3 µM.

And the TGI (SK-MEL-2 melanoma)?
The TGI was 29.8 µM.

What about the TGI (SK-MEL-28 melanoma) of the same molecule?
Its TGI is 39 µM.

What about the TGI (SK-MEL-5 melanoma) of the same molecule?
The TGI was 25.9 µM.

What about the TGI (SK-OV-3 ovarian) of the same molecule?
Its TGI is 54.4 µM.

What about the TGI (SN12C renal) of the same molecule?
Its TGI is 40.4 µM.

And the TGI (SNB-19 CNS)?
Its TGI is 25.4 µM.

What about the TGI (SNB-75 CNS) of the same molecule?
Its TGI is 42.9 µM.

What about the TGI (SNB-78 CNS) of the same molecule?
The TGI was over 100 µM.

And the TGI (SW-620 colon)?
The TGI was 24.2 µM.

What about the TGI (TK-10 renal) of the same molecule?
Its TGI is 50.9 µM.

And the TGI (U251 CNS)?
Its TGI is 23.1 µM.

What about the TGI (UACC-257 melanoma) of the same molecule?
Its TGI is 35.1 µM.

What about the TGI (UACC-62 melanoma) of the same molecule?
Its TGI is 22.5 µM.

What about the TGI (UO-31 renal) of the same molecule?
The TGI was 35.7 µM.

What about the TGI (XF 498 CNS) of the same molecule?
Its TGI is 9.47 µM.

How did the TGI (A549 NSCLC) turn out when `N#CC(NC12CC3CC(CC(C3)C1)C2)c1ccccc1C(F)(F)F` (stereo not drawn) was run?
Its TGI is over 100 µM.

And the TGI (ACHN renal)?
Its TGI is over 100 µM.

And the TGI (CAKI-1 renal)?
The TGI was over 100 µM.

And the TGI (CCRF-CEM leukemia)?
The TGI was over 100 µM.

What about the TGI (COLO 205 colon) of the same molecule?
The TGI was over 100 µM.

And the TGI (DLD-1 colon)?
Its TGI is over 100 µM.

And the TGI (DMS 114 small cell lung)?
Its TGI is over 100 µM.

And the TGI (DMS 273 small cell lung)?
Its TGI is over 100 µM.

And the TGI (EKVX NSCLC)?
Its TGI is over 100 µM.

And the TGI (HCC-2998 colon)?
Its TGI is over 100 µM.

What about the TGI (HCT-116 colon) of the same molecule?
The TGI was over 100 µM.

What about the TGI (HCT-15 colon) of the same molecule?
Its TGI is over 100 µM.

And the TGI (HL-60(TB) leukemia)?
The TGI was over 100 µM.

What about the TGI (HOP-18 NSCLC) of the same molecule?
The TGI was over 100 µM.

What about the TGI (HOP-62 NSCLC) of the same molecule?
Its TGI is over 100 µM.

And the TGI (HT29 colon)?
The TGI was over 100 µM.

What about the TGI (K-562 leukemia) of the same molecule?
Its TGI is over 100 µM.

And the TGI (KM12 colon)?
The TGI was over 100 µM.

And the TGI (KM20L2 colon)?
The TGI was over 100 µM.

And the TGI (LOX IMVI melanoma)?
Its TGI is over 100 µM.

What about the TGI (LXFL 529 NSCLC) of the same molecule?
Its TGI is over 100 µM.

And the TGI (M14 melanoma)?
Its TGI is over 100 µM.

And the TGI (M19-MEL melanoma)?
The TGI was over 100 µM.

And the TGI (MALME-3M melanoma)?
The TGI was over 100 µM.

What about the TGI (MOLT-4 leukemia) of the same molecule?
The TGI was over 100 µM.

And the TGI (NCI-H226 lung)?
The TGI was over 100 µM.

And the TGI (NCI-H23 lung)?
The TGI was over 100 µM.

And the TGI (NCI-H460 lung)?
The TGI was over 100 µM.

What about the TGI (NCI-H522 lung) of the same molecule?
Its TGI is over 100 µM.

What about the TGI (OVCAR-3 ovarian) of the same molecule?
Its TGI is over 100 µM.

What about the TGI (OVCAR-4 ovarian) of the same molecule?
Its TGI is over 100 µM.

What about the TGI (OVCAR-5 ovarian) of the same molecule?
Its TGI is over 100 µM.

What about the TGI (OVCAR-8 ovarian) of the same molecule?
The TGI was over 100 µM.

What about the TGI (RPMI-8226 leukemia) of the same molecule?
Its TGI is over 100 µM.

And the TGI (RXF 393 renal)?
Its TGI is over 100 µM.

What about the TGI (SF-268 CNS) of the same molecule?
Its TGI is over 100 µM.

What about the TGI (SF-539 CNS) of the same molecule?
Its TGI is over 100 µM.

What about the TGI (SK-MEL-2 melanoma) of the same molecule?
The TGI was over 100 µM.

And the TGI (SK-MEL-28 melanoma)?
Its TGI is over 100 µM.

What about the TGI (SK-MEL-5 melanoma) of the same molecule?
Its TGI is over 100 µM.

What about the TGI (SN12C renal) of the same molecule?
Its TGI is over 100 µM.

And the TGI (SNB-19 CNS)?
The TGI was over 100 µM.

What about the TGI (SR leukemia) of the same molecule?
Its TGI is over 100 µM.

What about the TGI (SW-620 colon) of the same molecule?
The TGI was over 100 µM.

And the TGI (TK-10 renal)?
The TGI was over 100 µM.

What about the TGI (UO-31 renal) of the same molecule?
The TGI was over 100 µM.

And the TGI (XF 498 CNS)?
Its TGI is over 100 µM.
